Experimental data: patent US12606533B2, “3-phenylpropylamine derivative” (DAIICHI SANKYO COMPANY, LIMITED, priority 2023, dated 2026)
Where two headings read alike, the source gives them in different places.

Tests used:
[1] = test system: NCI-H295R cells; assay: Proliferation inhibitory action on NCI-H295R (CellTiter-Glo, 7 days); format: cell-based, human
Procedure: DMSO solutions of each compound were serially diluted with DMSO using a D300e Digital Dispenser (TECAN), and added to a 384-well plate (Thermo Fisher Scientific Inc.). NCI-H295R cells were seeded in a 384-well plate at 2×10^3 cells/40 μL/well and cultured for 7 days in a 37° C., 5% CO2 incubator. […] On the first day of culture (day 0) and the seventh day of culture (day 7), 10 μL/well of CellTiter-Glo (registered trademark) 2.0 Assay (Promega) was added, and the luminescence signal was detected using a multimode plate reader (EnVision, PerkinElmer). The cell proliferation rate was calculated from the luminescence amount on the day of compound addition (CO), the luminescence amount of the compound-free group after 7 days of culture (C7), and the luminescence amount of the compound-added group (T7), based on the following formula.

[2] = target: T1, SF-1 (Homo sapiens, UniProt Q13285); assay: SF1 degradation induction in NCI-H295R SF-1-HiBiT cells (HiBiT DC50); format: cell-based; conditions: 24 hr, concentration that induces 50% degradation of SF-1
T1 construct: NCI-H295R SF-1-HiBiT cells with HiBiT tag knocked in at the endogenous SF1 locus; host or cells: NCI-H295R SF-1-HiBiT (knock-in at endogenous locus)
Procedure: NCI-H295R SF-1-HiBiT cells were seeded in a 384-well plate (Thermo Fisher Scientific Inc.) at 1×10^4 cells/50 μL/well and cultured at 37° C. in a 5% CO2 incubator for 24 hr. DMSO solutions of each compound were serially diluted with DMSO using a D300e Digital Dispenser (TECAN), added to a 384-well plate, and cultured in a 5% CO2 incubator at 37° C. for 24 hr. […] After completion of culture, the medium was discarded, and Nano-Glo (registered trade mark) HiBiT Lytic Detection System (Promega, Cat. No. N3040) was added at 20 μL/well and stirred with a plate mixer. Luminescence signals were then detected using a multimode plate reader (EnVision Xcite, PerkinElmer). The SF-1 protein degradation rate was calculated from the amount of luminescence (C) in the compound-free group and the amount of luminescence (T) in the compound-added group, based on the following formula.
The obtained data was analyzed using GraphPad Prism9 (GraphPad Software Inc.) or Genedata Screener (Genedata AG) to calculate the concentration that induces 50% degradation of SF-1 (DC50 value).

In the case of `COc1ccc([C@]2(CCN(Cc3ccc(C4=CC[C@H](CN5CCN(C(=O)c6ccc7c8c6O[C@@H]6COC[C@@H]6n8c(=O)n7C6CCC(=O)NC6=O)CC5)CC4)cc3)CC(C)(C)C(F)(F)F)CCOC(C)(C)C2)cc1` (relative stereo) [BV10, 3-[(6aS*,9aS*)-5-[(4-{[(4R)-4′-{[{2-[(4R)-4-(4-Methoxyphenyl)-2,2-dimethyltetrahydro-2H-pyran-4-yl]ethyl}(3,3,3-trifluoro-2,2-dimethylpropyl)amino]methyl}-2,3,4,5-tetrahydro[biphenyl]-4-yl]methyl}piperazin-1-yl)carbonyl]-1-oxo-6a, 7,9,9a-tetrahydrofuro[3,4-b]imidazo[1,5,4-de][1,4]benzoxazin-2(1H)-yl]piperidine-2,6-dione], the GI50 ([1]; Homo sapiens, NCI-H295R, 168 h) was 123 nM and the DC50 [2] was 14 nM.

Compound `COc1ccc([C@]2(CCN(Cc3ccc(C4=CC[C@H](C(=O)N5CCC(Nc6ccc7c8c6CCCn8c(=O)n7C6CCC(=O)NC6=O)CC5)CC4)c(F)c3)CC(C)(C)C(F)(F)F)CCOC(C)(C)C2)cc1` (single isomer, unassigned) [CG1, (3S) or (3R)-{7-[(1-{[(4R)-2′-Fluoro-4′-{[{2-[(4R)-4-(4-methoxyphenyl)-2,2-dimethyltetrahydro-2H-pyran-4-yl]ethyl}(3,3,3-trifluoro-2,2-dimethylpropyl)amino]methyl}-2,3,4,5-tetrahydro[biphenyl]-4-yl]carbonyl}piperidin-4-yl)amino]-2-oxo-5,6-dihydro-4H-imidazo[4,5,1-ij]quinolin-1(2H)-yl}piperidine-2,6-dione] has a GI50 [1] of 18 nM and a DC50 [2] of 1.8 nM.

`COc1ccc([C@]2(CCN(Cc3ccc(C4=CC[C@H](C(=O)N5CCC(Nc6ccc7c8c6CCCn8c(=O)n7C6CCC(=O)NC6=O)CC5)CC4)c(F)c3)CC(C)(C)C(F)(F)F)CCOC(C)(C)C2)cc1` (single isomer, unassigned) [CH1, (3S) or (3R)-{7-[(1-{[(4R)-2′-Fluoro-4′-{[{2-[(4R)-4-(4-methoxyphenyl)-2,2-dimethyltetrahydro-2H-pyran-4-yl]ethyl}(3,3,3-trifluoro-2,2-dimethylpropyl)amino]methyl}-2,3,4,5-tetrahydro[biphenyl]-4-yl]carbonyl}piperidin-4-yl)amino]-2-oxo-5,6-dihydro-4H-imidazo[4,5,1-ij]quinolin-1(2H)-yl}piperidine-2,6-dione] was tested, and the GI50 [1] was 25 nM and the DC50 [2] was 2.8 nM.

`Cn1c(=O)n(C2CCC(=O)NC2=O)c2ccc(C(=O)N3CCN(CC4CC=C(c5ccc(CN(CC[C@@]6(c7ccc(OC(F)F)cc7)CCOC(C)(C)C6)CC(C)(C)C(F)(F)F)cc5)CC4)CC3)cc21` (stereo partly drawn) [AM10, 3-[5-({4-[(4′-{[(2-{(4R)-4-[4-(Difluoromethoxy)phenyl]-2,2-dimethyltetrahydro-2H-pyran-4-yl}ethyl) (3,3,3-trifluoro-2,2-dimethylpropyl)amino]methyl}-2,3,4,5-tetrahydro[biphenyl]-4-yl)methyl]piperazin-1-yl}carbonyl)-3-methyl-2-oxo-2,3-dihydro-1H-benzimidazol-1-yl]piperidine-2,6-dione] showed a GI50 ([1]; Homo sapiens, NCI-H295R, 168 h) of 106 nM and a DC50 [2] of 7.3 nM.

In the case of `COc1ccc([C@]2(CCN(Cc3ccc(OC4CC5(CCN(CC(=O)N6CCn7c(=O)n(C8CCC(=O)NC8=O)c8cccc6c87)CC5)C4)cc3)CC(C)(C)C(F)(F)F)CCOC(C)(C)C2)cc1` (stereo partly drawn) [AN5, 3-[6-{[2-(4-{[{2-[(4R)-4-(4-Methoxyphenyl)-2,2-dimethyltetrahydro-2H-pyran-4-yl]ethyl}(3,3,3-trifluoro-2,2-dimethylpropyl)amino]methyl}phenoxy)-7-azaspiro[3.5]nonan-7-yl]acetyl}-2-oxo-5,6-dihydro-4H-imidazo[1,5,4-de]quinoxalin-1(2H)-yl]piperidine-2,6-dione], the GI50 ([1]; Homo sapiens, NCI-H295R, 168 h) was 92 nM and the DC50 [2] was 12 nM.

Work on `COc1ccc([C@]2(CCN(Cc3ccc(C4=CC[C@H](CN5CCN(C(=O)c6ccc7c(c6)n(C)c(=O)n7[C@@H]6CCC(=O)NC6=O)CC5)CC4)cc3)CC(C)(C)C(F)(F)F)CCOC(C)(C)C2)cc1` [AO7, (3R)-3-{5-[(4-{[(4R)-4′-{[{2-[(4R)-4-(4-Methoxyphenyl)-2,2-dimethyltetrahydro-2H-pyran-4-yl]ethyl}(3,3,3-trifluoro-2,2-dimethylpropyl)amino]methyl}-2,3,4,5-tetrahydro[biphenyl]-4-yl]methyl}piperazin-1-yl)carbonyl]-3-methyl-2-oxo-2,3-dihydro-1H-benzimidazol-1-yl}piperidine-2,6-dione] yielded a GI50 ([1]; Homo sapiens, NCI-H295R, 168 h) of 39 nM and a DC50 [2] of 5.4 nM.

Compound `COc1ccc([C@]2(CCN(Cc3ccc(C4=CC[C@H](CN5CCN(C(=O)c6ccc7c(c6)n(C)c(=O)n7[C@H]6CCC(=O)NC6=O)CC5)CC4)cc3)CC(C)(C)C(F)(F)F)CCOC(C)(C)C2)cc1` [AP6, (3S)-3-{5-[(4-{[(4R)-4′-{[{2-[(4R)-4-(4-Methoxyphenyl)-2,2-dimethyltetrahydro-2H-pyran-4-yl]ethyl}(3,3,3-trifluoro-2,2-dimethylpropyl)amino]methyl}-2,3,4,5-tetrahydro[biphenyl]-4-yl]methyl}piperazin-1-yl)carbonyl]-3-methyl-2-oxo-2,3-dihydro-1H-benzimidazol-1-yl}piperidine-2,6-dione] has a GI50 ([1]; Homo sapiens, NCI-H295R, 168 h) of 68 nM and a DC50 [2] of 4.1 nM.

`COc1ccc([C@]2(CCN(Cc3ccc(OC4CC5(CCN(CC(=O)Nc6ccc7c(c6)C(=O)N(C6CCC(=O)NC6=O)C7=O)CC5)C4)cc3)CC(C)(C)C(F)(F)F)CCOC(C)(C)C2)cc1` (stereo partly drawn) [AQ1, N-[2-(2,6-Dioxopiperidin-3-yl)-1,3-dioxo-2,3-dihydro-1H-isoindol-5-yl]-2-[2-(4-{[{2-[(4R)-4-(4-methoxyphenyl)-2,2-dimethyltetrahydro-2H-pyran-4-yl]ethyl}(3,3,3-trifluoro-2,2-dimethylpropyl)amino]methyl}phenoxy)-7-azaspiro[3.5]nonan-7-yl]acetamide] gave a GI50 ([1]; Homo sapiens, NCI-H295R, 168 h) of 286 nM and a DC50 [2] of 56 nM.

With `COc1ccc([C@]2(CCN(Cc3ccc(C4=CCC(CN5CCN(C(=O)c6ccc7c(c6)n(C)c(=O)n7C6CCC(=O)NC6=O)CC5)CC4)cc3)CC3(C(F)(F)F)CCC3)CCOC(C)(C)C2)cc1` (stereo partly drawn) [AR7, 3-(5-{[4-({4′-[({2-[(4R)-4-(4-Methoxyphenyl)-2,2-dimethyltetrahydro-2H-pyran-4-yl]ethyl}{[1-(trifluoromethyl)cyclobutyl]methyl}amino)methyl]-2,3,4,5-tetrahydro[biphenyl]-4-yl}methyl)piperazin-1-yl]carbonyl}-3-methyl-2-oxo-2,3-dihydro-1H-benzimidazol-1-yl)piperidine-2,6-dione] the GI50 ([1]; Homo sapiens, NCI-H295R, 168 h) was 82 nM and the DC50 [2] was 6.5 nM.

`COc1ccc([C@]2(CCN(Cc3ccc(C4=CCC(C(=O)N5CCN(Cc6ccc7c(c6)n(C)c(=O)n7C6CCC(=O)NC6=O)CC5)CC4)c(C)c3)CC(C)(C)C(F)(F)F)CCOC(C)(C)C2)cc1` (stereo partly drawn) [AS7, 3-[5-({4-[(4′-{[{2-[(4R)-4-(4-Methoxyphenyl)-2,2-dimethyltetrahydro-2H-pyran-4-yl]ethyl)(3,3,3-trifluoro-2,2-dimethylpropyl)amino]methyl}-2′-methyl-2,3,4,5-tetrahydro[biphenyl]-4-yl)carbonyl]piperazin-1-yl}methyl)-3-methyl-2-oxo-2,3-dihydro-1H-benzimidazol-1-yl]piperidine-2,6-dione] gave a GI50 ([1]; Homo sapiens, NCI-H295R, 168 h) of 56 nM and a DC50 [2] of 4.1 nM.

Work on `COc1ccc([C@]2(CCN(Cc3ccc(C4=CCC(C(=O)N5CCN(Cc6ccc7c(c6)n(C)c(=O)n7C6CCC(=O)NC6=O)CC5)CC4)cc3F)CC(C)(C)C(F)(F)F)CCOC(C)(C)C2)cc1` (stereo partly drawn) [AT3, 3-[5-({4-[(3′-Fluoro-4′-{[{2-[(4R)-4-(4-methoxyphenyl)-2,2-dimethyltetrahydro-2H-pyran-4-yl]ethyl}(3,3,3-trifluoro-2,2-dimethylpropyl)amino]methyl}-2,3,4,5-tetrahydro[biphenyl]-4-yl)carbonyl]piperazin-1-yl}methyl)-3-methyl-2-oxo-2,3-dihydro-1H-benzimidazol-1-yl]piperidine-2,6-dione] yielded a GI50 ([1]; Homo sapiens, NCI-H295R, 168 h) of 45 nM and a DC50 [2] of 7.7 nM.

`COc1ccc([C@]2(CCN(Cc3cc(F)c(C4=CCC(C(=O)N5CCN(Cc6ccc7c(c6)n(C)c(=O)n7C6CCC(=O)NC6=O)CC5)CC4)c(F)c3)CC(C)(C)C(F)(F)F)CCOC(C)(C)C2)cc1` (stereo partly drawn) [AU4, 3-[5-({4-[(2′,6′-Difluoro-4′-{[{2-[(4R)-4-(4-methoxyphenyl)-2,2-dimethyltetrahydro-2H-pyran-4-yl]ethyl)(3,3,3-trifluoro-2,2-dimethylpropyl)amino]methyl}-2,3,4,5-tetrahydro[biphenyl]-4-yl)carbonyl]piperazin-1-yl}methyl)-3-methyl-2-oxo-2,3-dihydro-1H-benzimidazol-1-yl]piperidine-2,6-dione] gave a GI50 ([1]; Homo sapiens, NCI-H295R, 168 h) of 60 nM and a DC50 [2] of 9.3 nM.
